Target: T1, human lipocalin-type prostaglandin D synthase (L-PGDS), wild type (Homo sapiens, UniProt P41222)
T1 construct: gene PTGDS; recombinant wild type, pNIC-CH vector, E. coli Rosetta 2 (DE3), Superdex 75 purified
T1 sequence (P41222 23-190): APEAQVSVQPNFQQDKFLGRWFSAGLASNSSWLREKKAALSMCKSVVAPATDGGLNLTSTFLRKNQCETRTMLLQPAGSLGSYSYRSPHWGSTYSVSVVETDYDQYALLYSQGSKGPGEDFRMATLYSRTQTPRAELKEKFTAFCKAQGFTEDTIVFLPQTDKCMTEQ
Test: ITC (reverse titration, L-PGDS into drug)
Settings: read-out: Binding affinities and thermodynamic parameters / Kd^a
Description: ITC (reverse titration, L-PGDS into drug) on human lipocalin-type prostaglandin D synthase (L-PGDS), wild type

Kd | SMILES
5.7 ± 0.2 µM | CN(C)CCC(c1ccc(Cl)cc1)c1ccccn1 (centres unmarked) [CPM, Chlorpheniramine]
6.5 ± 0.2 µM | O=c1n(CCCN2CCN(c3cccc(Cl)c3)CC2)nc2ccccn12 [TRD, Trazodone]
